The values that follow come from US8685936B2, “Sphingosine kinase inhibitor prodrugs” (Apogee Biotechnology Corporation, priority 2009, dated 2014).

For data set [1], the system named is esterases in mouse plasma. The data set can be described thus: Conversion of ester prodrugs to Compound 1 by mouse plasma (HPLC). The data set is classed as in vitro ADME. The protocol:
FIG. 2. Chromatogram of Compound 2. Purified Compound 2 was analyzed by high-performance liquid chromatography using a Waters 2795 system equipped with a photodiode array detector. Separations were conducted using a Nova-Pak C18 column (3.9×150 mm, Waters) eluted isocratically with a mobile phase that consisted of 65% Solvent A (methanol containing 0.1% formic acid) and 35% Solvent B (5% acetonitrile and 95% water containing 0.1% formic acid) at a flow rate of 0.6 mL/min. Compound 2 was detected by its absorbance at the wavelength of 265 nm.
FIG. 3. Conversion of Compound 2 to Compound 1 by plasma enzymes. Purified Compound 2 was incubated with mouse plasma for 5 minutes at room temperature. The sample was then extracted and analyzed by high-performance liquid chromatography as described for FIG. 2.
Prodrugs are compounds that are converted to a biologically active metabolite through the action of enzymes in the body. […] When Compound 2 was incubated with plasma isolated from mouse blood at room temperature for 5 minutes and then analyzed by a similar HPLC process, the peak corresponding to Compound 2 was reduced by more than 95%, and new compounds that eluted with retention times consistent with the monoester of Compound 1, i.e. one of the acetyl esters had been removed, and Compound 1 itself, i.e. both of the acetyl esters had been removed (FIG. 3). […]

The test system of data set [2] is Murine JC mammary adenocarcinoma cells. In words: Cytotoxicity, MTS cell viability assay. It is filed as cell-based. Particulars: 72 hours. The source says:
FIG. 5. Inhibition of tumor cell proliferation by Compound 1 and Compound 2. Murine JC mammary adenocarcinoma cells were exposed to the indicated concentrations of either Compound 1 (▪) or Compound 2 (▴) for 72 hr. At the end of the exposure, the number of viable tumor cells was quantified using the MTS assay. Values represent the fraction of surviving cells compared with DMSO-(vehicle)-treated control cells.
To further assess the biological efficacies of the Compounds in intact cells, Compound 1 and Compound 2 were evaluated for cytotoxicity using a murine breast cancer cell line. These experiments followed methods that have been extensively used. The cells were treated with varying doses of the test Compound for 72 hours, and then cell viability was measured using CellTiter 96® AQueous Non-Radioactive Cell Proliferation Assay (MTS) available from Promega Corporation. Values represent the mean±std. dev. percentage of cells that survive at each of the indicated concentrations of Compound 1 or Compound 2. […] However, the extent of cell killing and the potency for cell killing were greater for Compound 2 than Compound 1.

In data set [3] the test system is mouse JC mammary adenocarcinoma tumors. The data set can be described thus: Antitumor activity, JC mammary adenocarcinoma tumors growing subcutaneously in Balb/c mice. The note with it: 50 mg/kg of Compound 2 daily for five days per week. It is filed as in vivo. Here is the method:
FIG. 6. Antitumor activity of Compound 2 alone and in combination with gemcitabine. Murine JC mammary adenocarcinoma cells were injected subcutaneously into Balb/c mice and tumors were allowed to grow to approximately 150 mm^3. The animals were then treated with vehicle alone (▪), 1 mg/kg of gemcitabine weekly (▴), 50 mg/kg of Compound 2 daily for five days per week (▾) or a combination of gemcitabine plus Compound 2 (♦). Tumors were measured twice per week. The values shown represent the average tumor volume+/−the std. dev. for each group (n=8).
The antitumor activity of a representative prodrug SK inhibitor was evaluated using a […] tumor model that uses the mouse JC mammary adenocarcimona cell line growing subcutaneously in immunocompetent Balb/c mice (Lee et al., Oncol Res 14: 49 (2003)). These cells express elevated levels of SK activity relative to non-transformed cells, as well as the multidrug resistance phenotype due to P-glycoprotein activity. Murine JC mammary adenocarcinoma cells were injected subcutaneously into Balb/c mice and tumors were allowed to grow to approximately 100 mm^3. The animals were then treated with vehicle alone (▪), 1 mg/kg of gemcitabine weekly (▴), 50 mg/kg of Compound 2 daily for five days per week (▾) or a combination of gemcitabine plus Compound 2 (♦). Tumors were measured twice per week. […]

In the case of `CC(=O)Oc1ccc(CCNC(=O)C23CC4CC(C2)CC(c2ccc(Cl)cc2)(C4)C3)cc1OC(C)=O` [Compound 2, Acetic acid 2-acetoxy-5-(2-{[3-(4-chlorophenyl)-adamantane-1-carbonyl]-amino}ethyl)phenyl ester], the “reduction of the HPLC peak corresponding to Compound 2” value in data set [1] (incubated with mouse plasma at room temperature for 5 minutes) is recorded as “more than 95%”. The “cleavage of the esters / conversion to Compound 1 by mouse plasma” value in data set [1] (mouse plasma, room temperature, 5 minutes, HPLC) was “rapidly convert Compound 2 into Compound 1”. In data set [2], the “extent of cell killing, Compound 2 compared with Compound 1” value was “greater”; the “inhibition of tumor cell proliferation (cell viability)” value is recorded as “can inhibit tumor cell proliferation”; the “potency for cell killing, Compound 2 compared with Compound 1” value is “greater”. Further, the “tumor growth (tumor volume)” value in data set [3] is “significant reduction of tumor growth”.
